ChEMBL document CHEMBL1201862, “PubChem BioAssay data set” (2004)
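These data come from cells grown in 96-well plates and exposed to compound for 48 hours at five concentrations. The concentration for 50% growth inhibition is given as GI50.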 Activity calls are given as the source filed them. No stated cut-off is given here; in the data, active = GI50 up to about 1.1 µM and inactive = higher.

Legend:
Experiment in all cases: NCI anticancer screen, dose series, 48 h
[1] = test system: CAKI-1
[2] = test system: NCI-H522
[3] = test system: HL-60
[4] = test system: RXF 393
[5] = test system: NCI-H460
[6] = test system: UO-31
[7] = test system: M19-MEL
[8] = test system: K562
[9] = test system: SF-295
[10] = test system: U-251
[11] = test system: SW-620
[12] = test system: M14
[13] = test system: HOP-62
[14] = test system: LOX IMVI
[15] = test system: IGROV-1
[16] = test system: OVCAR-5
[17] = test system: BT-549
[18] = test system: Hs-578T
[19] = test system: MDA-MB-435
[20] = test system: NCI/ADR-RES

For `COc1ccccc1NC(=O)C(=O)C(c1cnc2ccc([N+](=O)[O-])cc2n1)[N+](=O)[O-]` (stereo not given), the GI50 [1] was > 100 µM (inactive), the GI50 [2] was 8.71 µM (inactive) and the GI50 [3] was 19.5 µM (inactive). The GI50 [4] was > 100 µM (inactive), the GI50 [5] was > 100 µM (inactive) and the GI50 [6] was 78 µM (inactive). The GI50 [7] was > 100 µM (inactive), the GI50 [8] was 31.5 µM (inactive) and the GI50 [9] was > 100 µM (inactive). For the same molecule, the GI50 [10] was > 100 µM (inactive), the GI50 [11] was > 100 µM (inactive) and the GI50 [12] was 78.7 µM (inactive). The GI50 [13] was > 100 µM (inactive), the GI50 [14] was > 100 µM (inactive) and the GI50 [15] was > 100 µM (inactive). For the same molecule, the GI50 [16] was > 100 µM (inactive).
With `Cc1cccc(C(C)C)c1NC(=O)CC1C(=O)Nc2ccccc2S1(=O)=O` (stereo not given) the GI50 [1] was 6.58 µM (inactive), the GI50 [2] was 7.01 µM (inactive) and the GI50 [3] was 5.28 µM (inactive). For the same molecule, the GI50 [4] was 10.2 µM (inactive), the GI50 [5] was 12.8 µM (inactive) and the GI50 [6] was 13.5 µM (inactive). The GI50 [7] was 18.6 µM (inactive), the GI50 [8] was 2.22 µM (inactive) and the GI50 [9] was 18.2 µM (inactive). The GI50 [10] was 24.2 µM (inactive), the GI50 [11] was 7.03 µM (inactive) and the GI50 [12] was 15.5 µM (inactive). The GI50 [13] was 54.6 µM (inactive), the GI50 [14] was 22.2 µM (inactive) and the GI50 [15] was 22.5 µM (inactive). The GI50 [16] was 39.7 µM (inactive).
In the case of `Cc1ccccc1Nc1nc2c(s1)C(=O)c1ccccc1C2=O`, the GI50 [1] is reported as 16.5 µM (inactive), the GI50 [2] is reported as 2.86 µM (inactive) and the GI50 [3] is reported as 2.31 µM (inactive). For the same molecule, the GI50 [4] was 8.87 µM (inactive), the GI50 [5] was 8.67 µM (inactive) and the GI50 [6] was 5.07 µM (inactive). For the same molecule, the GI50 [7] was 1.95 µM (inactive), the GI50 [8] was 3.07 µM (inactive) and the GI50 [9] was 18 µM (inactive). The GI50 [10] was 4.09 µM (inactive), the GI50 [17] was 2.46 µM (inactive) and the GI50 [11] was 2.49 µM (inactive). The GI50 [12] was 5.82 µM (inactive), the GI50 [13] was 16.4 µM (inactive) and the GI50 [14] was 2.26 µM (inactive). For the same molecule, the GI50 [15] was 9.55 µM (inactive) and the GI50 [16] was 21.5 µM (inactive).
In the case of `O=C(Cc1ccccc1)C(c1ccccc1)S(=O)(=O)c1ccccc1` (stereo not given), the GI50 [1] is reported as > 100 µM (inactive), the GI50 [2] is reported as 88.7 µM (inactive) and the GI50 [3] is reported as > 100 µM (inactive). The GI50 [4] was 67 µM (inactive), the GI50 [5] was > 100 µM (inactive) and the GI50 [6] was 41.2 µM (inactive). The GI50 [7] was > 100 µM (inactive), the GI50 [8] was 93.3 µM (inactive) and the GI50 [9] was > 100 µM (inactive). For the same molecule, the GI50 [10] was > 100 µM (inactive), the GI50 [11] was > 100 µM (inactive) and the GI50 [12] was > 100 µM (inactive). The GI50 [13] was > 100 µM (inactive), the GI50 [14] was > 100 µM (inactive) and the GI50 [15] was > 100 µM (inactive). For the same molecule, the GI50 [16] was > 100 µM (inactive).
For `O=C(Cc1ccccc1)Oc1ccc2c(-c3ccccc3)c(C(=O)Nc3ccc(Cl)cc3)c(=O)oc2c1`, the GI50 [1] was > 100 µM (inactive), the GI50 [2] was > 100 µM (inactive) and the GI50 [3] was > 100 µM (inactive). For the same molecule, the GI50 [4] was > 100 µM (inactive), the GI50 [5] was > 100 µM (inactive) and the GI50 [6] was > 100 µM (inactive). For the same molecule, the GI50 [7] was > 100 µM (inactive), the GI50 [8] was > 100 µM (inactive) and the GI50 [9] was > 100 µM (inactive). The GI50 [10] was > 100 µM (inactive), the GI50 [11] was > 100 µM (inactive) and the GI50 [12] was > 100 µM (inactive). The GI50 [13] was > 100 µM (inactive), the GI50 [14] was > 100 µM (inactive) and the GI50 [15] was > 100 µM (inactive). The GI50 [16] was > 100 µM (inactive).
For `O=C(CSc1c2ccccc2nc2ccccc12)Nc1ccccc1-c1ccccc1NC(=O)CSc1c2ccccc2nc2ccccc12`, the GI50 [1] was 26.6 µM (inactive), the GI50 [2] was 9.42 µM (inactive) and the GI50 [3] was 6.17 µM (inactive). The GI50 [4] was 21.5 µM (inactive), the GI50 [5] was 29 µM (inactive) and the GI50 [6] was 34.2 µM (inactive). The GI50 [7] was 23.1 µM (inactive), the GI50 [8] was 2.37 µM (inactive) and the GI50 [9] was 25.6 µM (inactive). The GI50 [10] was 26.7 µM (inactive), the GI50 [11] was 28.6 µM (inactive) and the GI50 [12] was 24.4 µM (inactive). The GI50 [13] was 31.8 µM (inactive), the GI50 [14] was 17.2 µM (inactive) and the GI50 [15] was 18.4 µM (inactive). For the same molecule, the GI50 [16] was 56.6 µM (inactive).
`Cc1cc2nc3ccc(N(C)C)cc3[s+]c2cc1N` [TOLONIUM CHLORIDE] was tested, and the GI50 [1] was 23.5 µM (inactive), the GI50 [2] was 2.62 µM (inactive) and the GI50 [18] was 5.12 µM (inactive). For the same molecule, the GI50 [3] was 0.383 µM (active), the GI50 [4] was 7.52 µM (inactive) and the GI50 [5] was 2.82 µM (inactive). For the same molecule, the GI50 [6] was 11 µM (inactive), the GI50 [7] was 0.184 µM (active) and the GI50 [8] was 2.22 µM (inactive). For the same molecule, the GI50 [9] was 3.62 µM (inactive), the GI50 [10] was 3.17 µM (inactive) and the GI50 [17] was 11.7 µM (inactive). For the same molecule, the GI50 [11] was 2.86 µM (inactive), the GI50 [12] was 2.24 µM (inactive) and the GI50 [19] was 0.977 µM (active). The GI50 [13] was 8.97 µM (inactive), the GI50 [14] was 1.96 µM (inactive) and the GI50 [15] was 6.22 µM (inactive). For the same molecule, the GI50 [20] was 2.26 µM (inactive) and the GI50 [16] was 9.73 µM (inactive).
`COc1ccc2nc(C)cc(NCCCCCCCCCNc3cc(C)nc4ccc(OC)cc34)c2c1` was tested, and the GI50 [1] was 6.67 µM (inactive), the GI50 [2] was 0.834 µM (active) and the GI50 [18] was 1.64 µM (inactive). The GI50 [3] was 0.824 µM (active), the GI50 [4] was 2.05 µM (inactive) and the GI50 [5] was 0.396 µM (active). The GI50 [6] was 13.6 µM (inactive), the GI50 [7] was 14.6 µM (inactive) and the GI50 [8] was 0.264 µM (active). The GI50 [9] was 1.11 µM (active), the GI50 [10] was 2.07 µM (inactive) and the GI50 [17] was 8.95 µM (inactive). The GI50 [11] was 0.957 µM (active), the GI50 [12] was 1.95 µM (inactive) and the GI50 [19] was 1.58 µM (inactive). For the same molecule, the GI50 [13] was 2.26 µM (inactive), the GI50 [14] was 0.714 µM (active) and the GI50 [15] was 2.99 µM (inactive). For the same molecule, the GI50 [20] was 5.43 µM (inactive) and the GI50 [16] was 2.55 µM (inactive).
For `Fc1cccc(C2SCc3nc4ccccc4n32)c1F` (stereo not given), the GI50 [1] was 59.4 µM (inactive), the GI50 [2] was 37.2 µM (inactive) and the GI50 [3] was 16.1 µM (inactive). The GI50 [4] was 54.2 µM (inactive), the GI50 [5] was 51.5 µM (inactive) and the GI50 [6] was 41.9 µM (inactive). For the same molecule, the GI50 [7] was 43.9 µM (inactive), the GI50 [8] was 33 µM (inactive) and the GI50 [9] was 30.8 µM (inactive). The GI50 [10] was 82.8 µM (inactive), the GI50 [11] was > 100 µM (inactive) and the GI50 [12] was 62.4 µM (inactive). For the same molecule, the GI50 [13] was > 100 µM (inactive), the GI50 [14] was 84.3 µM (inactive) and the GI50 [15] was 73.8 µM (inactive). The GI50 [16] was > 100 µM (inactive).
For `CCOC(=O)NN1C(=O)C(=P(c2ccccc2)(c2ccccc2)c2ccccc2)C(C(=O)OCC)=C1C`, the GI50 [1] was > 100 µM (inactive), the GI50 [2] was > 100 µM (inactive) and the GI50 [3] was > 100 µM (inactive). For the same molecule, the GI50 [4] was > 100 µM (inactive), the GI50 [5] was > 100 µM (inactive) and the GI50 [6] was > 100 µM (inactive). The GI50 [7] was > 100 µM (inactive), the GI50 [8] was > 100 µM (inactive) and the GI50 [9] was > 100 µM (inactive). For the same molecule, the GI50 [10] was > 100 µM (inactive), the GI50 [11] was > 100 µM (inactive) and the GI50 [12] was > 100 µM (inactive). The GI50 [13] was > 100 µM (inactive), the GI50 [14] was > 100 µM (inactive) and the GI50 [15] was > 100 µM (inactive). For the same molecule, the GI50 [16] was > 100 µM (inactive).
`Cc1cccc2c(=O)c([Se]c3coc4c(C)cccc4c3=O)coc12` was tested, and the GI50 [1] was 20.7 µM (inactive), the GI50 [2] was 31.3 µM (inactive) and the GI50 [3] was 30.6 µM (inactive). The GI50 [4] was 17.8 µM (inactive), the GI50 [5] was 5.73 µM (inactive) and the GI50 [6] was 14.9 µM (inactive). For the same molecule, the GI50 [7] was 16.5 µM (inactive), the GI50 [8] was 69.5 µM (inactive) and the GI50 [9] was 3.56 µM (inactive). The GI50 [10] was 11.2 µM (inactive), the GI50 [11] was 20.4 µM (inactive) and the GI50 [12] was 16.4 µM (inactive). The GI50 [13] was 11.9 µM (inactive), the GI50 [14] was 20 µM (inactive) and the GI50 [15] was 13.6 µM (inactive). The GI50 [16] was 18.9 µM (inactive).
